Source: patent US8269022B2, “Polymorphs of enantiopure erdosteine” (Edmond Pharma S.R.L, priority 2007, dated 2012)

What was measured:
[1] = Flowability test (flow through the funnel); type: physicochemical; settings: for Flowing time (mean value): flowability comparison, powder
Text: These advantages will be clearer by considering the following comparison between Form I of S-Erdosteine and the amorphous racemic form. […] Conversely, Form I has a mean flowing time of about 35 seconds, which allows to handle and transfer the powder more easily, and to avoid the use or reduce the amount of glidants in the finished pharmaceutical formulation.

[2] = Dissolution rate test (Intrinsic Dissolution Rate) of 150 mg tablets in 0.1M hydrochloric acid; type: physicochemical; settings: FIG. 10
Procedure: A dissolution rate test was performed in order to define the Intrinsic Dissolution Rate of Erdosteine Form I and Racemic Erdosteine. Six thin 150 mg tablets of S-erdosteine Form I and six 150 mg tablets of racemic Erdosteine were prepared by compression with a 10 ton press and their dissolution profile in 0.1M hydrochloric acid was evaluated. The two profiles are reported in FIG. 10, superimposed on the same graph. As can be clearly seen, the dissolution profile of Form I is very different from that of racemic, non-polymorphic Erdosteine. In fact, after 15 minutes more than 80% Form I is dissolved, while more that 25 minutes are necessary to dissolve 40% racemic Erdosteine. The higher solubility of Form I allows to obtain an improved pharmaceutical form in terms of dosage and bioavailability.

Flowing time (mean value) [1]	mean flowing time ([1]; powder through the funnel)	amount dissolved ([2]; after 15 minutes)	flowability (flow through the funnel) ([1]; result in words)	time necessary to dissolve 40% [2]	Compound
35.6″	about 35 seconds	more than 80%			O=C(O)CSCC(=O)NC1CCSC1=O (stereo not drawn) [Erdosteine Form I]
∞			does not flow through the funnel	> 25 min	O=C(O)CSCC(=O)NC1CCSC1=O (racemic) [Racemic Erdosteine]
